Series [1] relates to Rattus norvegicus. The series is described as follows: Antiinflammatory activity in rat assessed as inhibition of carrageenan-induced paw volume at 20 mg/kg, po administered 1 hr prior to carrageenan challenge measured after 3 hrs (reference value: 1.68 +/- 0.029 ml). The series is classed as functional.
The subject of series [2] is Mus musculus. The series is described as follows: Analgesic activity in Swiss Albino acetic acid-induced writhing mouse model assessed as protection at 20 mg/kg, po administered 30 mins before to acetic acid challenge measured for 10 mins. The series is classed as functional.
The subject of series [3] is Rattus norvegicus. The series is described as follows: Antiinflammatory activity in rat assessed as inhibition of carrageenan-induced paw volume at 20 mg/kg, po administered 1 hr prior to carrageenan challenge measured after 5 hrs (reference value: 1.70 +/- 0.020 ml). The series is classed as functional.
Series [4] deals with Rattus norvegicus. The experiment in a line: Antiinflammatory activity in rat assessed as inhibition of carrageenan-induced paw volume at 20 mg/kg, po administered 1 hr prior to carrageenan challenge measured after 5 hrs relative to vehicle-treated control. The series is classed as functional.
Series [5] has as its system Mus musculus. The series is described as follows: Analgesic activity in Swiss Albino acetic acid-induced writhing mouse model assessed as number of writhes at 20 mg/kg, po administered 30 mins before to acetic acid challenge measured for 10 mins (reference value: 92.8 +/- 1.49). The series is classed as functional.
Series [6] deals with Rattus norvegicus. The series is described as follows: Antiinflammatory activity in rat assessed as inhibition of carrageenan-induced paw volume at 20 mg/kg, po administered 1 hr prior to carrageenan challenge measured after 3 hrs relative to vehicle-treated control. Format: functional.
Series [7] is described as follows: Reduction in carrageenan-induced lipid peroxidation in gastric mucosa tissue (unknown origin) assessed as MDA after 30 mins. Format: functional, tissue-based.
Series [8] concerns RAW264.7. The experiment in a line: Antiinflammatory activity against mouse RAW264.7 cells assessed as inhibition of LPS-induced TNFalpha level at 20 uM after 24 hrs by ELISA relative to untreated control. Format: functional. Particulars: RAW264.7, 24 h.
The subject of series [9] is Rattus norvegicus. The experiment in a line: Ulcerogenic effect in Albino Wistar rat assessed as damage in gastric mucosa at 60 mg, po after 5 hrs. The series is classed as toxicity, organism-based. The conditions noted are these: in vivo.
The nature of series [10]: Cytotoxicity against mouse RAW264.7 cells assessed as cell viability at 20 uM after 24 hrs by MTT assay. Format: cell-based. The conditions noted are these: read-out: Activity.
Series [11] can be described thus: Inhibition of carrageenan-induced NFkappaB expression in paw tissue (unknown origin) by immunohistochemistry. Format: functional.
Series [12] can be described thus: Inhibition of carrageenan-induced TNFalpha expression in paw tissue (unknown origin) by immunohistochemistry. The series is classed as functional.
Series [13] is described as follows: Inhibition of carrageenan-induced COX-2 expression in paw tissue (unknown origin) by immunohistochemistry. The series is classed as functional.

Active and inactive are the calls of the source. The calls are words filed in the database; no cut-off is given here.

As for `Cc1ccc(-n2cc(COC(=O)/C=C/C=C/c3ccc4c(c3)OCO4)nn2)cc1C`, the Activity is 0.68 mL in series [1], 44.93% in series [2], 0.66 mL in [3] and 51.2 in series [5]. Further, the inhibition in vivo at 20 mg/kg was 70.3% in series [4] and 67.9% in [6].

Consider `CCc1ccc(-n2cc(COC(=O)/C=C/C=C/c3ccc4c(c3)OCO4)nn2)cc1`, for which the Activity was found to be 0.83 mL in [1] and 0.8 mL in series [3]. For the same molecule, the inhibition in vivo at 20 mg/kg in [4] came out at 60%; in series [6] it was 57.5%.

In the case of `O=C(/C=C/C=C/c1ccc2c(c1)OCO2)OCc1cn(-c2ccc(Cl)cc2Cl)nn1`, the Activity in series [1] was 0.64 mL; in series [2], 45.04%; in series [3], 0.622 mL; in [5], 51; in series [9], “Non-toxic”. Moreover, the inhibition result in series [7] is “Active”. Moreover, the inhibition at 20 µM in series [8] amounted to 60.7%. Moreover, the results for the inhibition in vivo at 20 mg/kg in series [4] and in series [6] were 71.2% and 69.3%, respectively. For the same molecule, in series [10], the viability at 24 h, 20 µM worked out at 90%.

Turning to `O=C(/C=C/C=C/c1ccc2c(c1)OCO2)OCc1cn(-c2ccc(Cl)c(Cl)c2)nn1`, the Activity in series [1] was 0.632 mL; in [2] it was 50%; in [3], 0.588 mL; in [5] it was 46.4; in series [9], “Non-toxic”. The inhibition result in series [7] is “Active”. Moreover, in series [8], the inhibition at 20 µM worked out at 63.6%. Also, the inhibition in vivo at 20 mg/kg in series [4] came to 73%; in series [6], 69.6%. Moreover, in series [10], the viability at 24 h, 20 µM came to 90%.

Consider `O=C(/C=C/C=C/c1ccc2c(c1)OCO2)OCc1cn(-c2ccccc2)nn1`, for which the results for the Activity in series [1] and in series [3] were 1.12 mL and 1.11 mL, respectively. The inhibition in vivo at 20 mg/kg in [4] is 38.5%; in series [6], 37%.

With `O=C(/C=C/C=C/c1ccc2c(c1)OCO2)OCc1cn(-c2ccc(Cl)cc2)nn1`, the Activity was 0.83 mL in [1] and 0.81 mL in series [3]. Also, the inhibition in vivo at 20 mg/kg worked out at 59.7% in series [4] and 57.5% in [6].

Take `Cc1ccc(-n2cc(COC(=O)/C=C/C=C/c3ccc4c(c3)OCO4)nn2)cc1`: the figures for the Activity in series [1] and in series [3] were 1.01 mL and 0.98 mL, respectively. The inhibition in vivo at 20 mg/kg stood at 49.1% in series [4] and 46.2% in series [6].

In the case of `O=C(/C=C/C=C/c1ccc2c(c1)OCO2)OCc1cn(-c2ccc(Br)cc2)nn1`, the Activity in series [1] stood at 0.89 mL; in series [3], 0.87 mL. In addition, the results for the inhibition in vivo at 20 mg/kg in series [4] and in series [6] were 55.5% and 53.6%, respectively.

With `O=C(/C=C/C=C/c1ccc2c(c1)OCO2)OCc1cn(-c2ccc(F)cc2)nn1`, the Activity is 0.87 mL in series [1] and 0.85 mL in series [3]. In addition, the inhibition in vivo at 20 mg/kg is 57% in series [4] and 55.5% in [6].

With `O=C(/C=C/C=C/c1ccc2c(c1)OCO2)OCc1cn(-c2ccccc2Cl)nn1`, the Activity in series [1] was 0.58 mL; in [2] it was 50.64%; in series [3], 0.56 mL; in series [5], 45.8; in series [9], “Non-toxic”. In addition, the inhibition result in [11], in series [7], in [12] and in [13] was “Active” each time. For the same molecule, in series [8], the inhibition at 20 µM stood at 73.7%. Also, the inhibition in vivo at 20 mg/kg in series [4] worked out at 76.7%; in [6], 74.5%. The viability at 24 h, 20 µM in [10] came to 90%.

Regarding `CCOc1ccc(-n2cc(COC(=O)/C=C/C=C/c3ccc4c(c3)OCO4)nn2)cc1`, the Activity in series [1] is 1.1 mL; in series [3], 1.14 mL. For the same molecule, the figures for the inhibition in vivo at 20 mg/kg in series [4] and in [6] were 36.5% and 32.9%, respectively.

Regarding `O=C(/C=C/C=C/c1ccc2c(c1)OCO2)OCc1cn(-c2ccccc2Br)nn1`, the Activity was 0.56 mL in series [1]; 54.09% in series [2]; 0.51 mL in series [3]; 42.6 in series [5]; “Non-toxic” in series [9]. For the same molecule, the inhibition result in [11], in series [7], in series [12] and in series [13] was “Active” throughout. Further, in series [8], the inhibition at 20 µM worked out at 70.6%. Further, the inhibition in vivo at 20 mg/kg is 80.4% in series [4] and 76.1% in series [6]. The viability at 24 h, 20 µM in series [10] was found to be 90%.

Turning to `O=C(/C=C/C=C/c1ccc2c(c1)OCO2)OCc1cn(-c2cccc(Cl)c2)nn1`, the Activity amounted to 0.71 mL in series [1] and 0.69 mL in [3]. Further, the inhibition in vivo at 20 mg/kg in series [4] was found to be 67.8%; in series [6], 64.7%.

In the case of `COc1ccc2c(c1)c(CC(=O)O)c(C)n2C(=O)c1ccc(Cl)cc1` [INDOMETHACIN], the Activity is 0.608 mL in series [1]; 57.43% in series [2]; 0.54 mL in series [3]; 39.4 in series [5]; “Toxic” in series [9]. For the same molecule, the inhibition result in series [11], in series [12] and in series [13] was “Active” throughout. The inhibition at 20 µM in series [8] is 68%. Moreover, the inhibition in vivo at 20 mg/kg in series [4] came out at 77%; in [6], 72%. Besides, the viability at 24 h, 20 µM in series [10] was determined as 55%.

Regarding `COc1ccccc1-n1cc(COC(=O)/C=C/C=C/c2ccc3c(c2)OCO3)nn1`, the Activity was 0.76 mL in [1] and 0.72 mL in [3]. In addition, the inhibition in vivo at 20 mg/kg in series [4] worked out at 65%; in [6], 61.6%.

For the molecule `COc1ccc(-n2cc(COC(=O)/C=C/C=C/c3ccc4c(c3)OCO4)nn2)cc1`, the figures for the Activity in series [1] and in [3] were 0.88 mL and 0.86 mL, respectively. Further, the inhibition in vivo at 20 mg/kg was 55.9% in [4] and 54% in series [6].

As to `O=C(/C=C/C=C/c1ccc2c(c1)OCO2)OCc1cn(-c2ccc([N+](=O)[O-])cc2)nn1`, the Activity amounted to 1.39 mL in [1] and 1.37 mL in series [3]. In addition, the results for the inhibition in vivo at 20 mg/kg in series [4] and in series [6] were 22.1% and 19.6%, respectively.

On to `O=C(/C=C/C=C/c1ccc2c(c1)OCO2)OCc1cn(-c2ccccc2F)nn1`, for which the Activity in series [1] is 0.68 mL; in series [2] it was 48.7%; in [3], 0.65 mL; in series [5] it was 45.8. Besides, the figures for the inhibition in vivo at 20 mg/kg in series [4] and in series [6] were 70.8% and 68.2%, respectively.

As to `O=C(/C=C/C=C/c1ccc2c(c1)OCO2)N1CCCCC1` [PIPERINE], the Activity was 0.676 mL in series [1], 0.67 mL in series [3] and “Non-toxic” in series [9]. Moreover, in series [8], the inhibition at 20 µM came out at 49.7%. Besides, the inhibition in vivo at 20 mg/kg stood at 54.7% in series [4] and 53.7% in series [6].

For the molecule `Cc1ccccc1-n1cc(COC(=O)/C=C/C=C/c2ccc3c(c2)OCO3)nn1`, the results for the Activity in series [1] and in series [3] were 0.91 mL and 0.88 mL, respectively. For the same molecule, the inhibition in vivo at 20 mg/kg worked out at 54.6% in series [4] and 51.5% in series [6].

Turning to `O=C(/C=C/C=C/c1ccc2c(c1)OCO2)OCc1cn(-c2cccc([N+](=O)[O-])c2)nn1`, the results for the Activity in [1] and in [3] were 1.44 mL and 1.46 mL, respectively. Moreover, the figures for the inhibition in vivo at 20 mg/kg in series [4] and in series [6] were 15.4% and 15.6%, respectively.

(Values after ChEMBL document CHEMBL3414439, “Design, synthesis and biological evaluation of piperic acid triazolyl derivatives as potent anti-inflammatory agents” (Eur J Med Chem, 2015).)
